In assay [1] the target is TNF-α converting enzyme (TACE) (Homo sapiens, UniProt P78536). Briefly: Test procedure for measuring TACE inhibition (fluorescent peptidyl substrate). In kind it is biochemical. The procedure:
Using 96-well black microtiter plates, each well receives a solution composed of 10 μL TACE (final concentration 1 μg/mL), 70 μL Tris buffer, pH 7.4 containing 10% glycerol (final concentration 10 mM), and 10 μL of test compound solution in DMSO (final concentration 1 μM, DMSO concentration <1%) and incubated for 10 minutes at room temperature. The reaction is initiated by addition of a fluorescent peptidyl substrate (final concentration 100 μM to each well and then shaking on a shaker for 5 sec.
The reaction is read (excitation 340 nm, emission 420 nm) for 10 min. and the increase in fluorescence over time is plotted as a linear line. The slope of the line is calculated and represents the reaction rate.
The mean (x±sem) of the control rate is calculated and compared for statistical significance (p<0.05) with drug-treated rates using Dunnett's multiple comparison test.

Another assay deals with THP-1 cells. Put plainly: Human monocytic THP-1 cell differentiation assay for soluble proteins (THP-1 soluble protein assay). In kind it is cell-based. The note with it: LPS-stimulated THP-1 cells, soluble protein not given. The text has this: Mitogenic stimulation of THP-1 cells cause differentiation into macrophage like cells with concomitant secretion of tumor necrosis factor (TNF-α) and TNF receptor (TNF-R p75/80 and TNF-R p55160) and Interleukin-8 (IL-8), among other proteins. In addition, non-stimulated THP-1 cells shed both the p75/80 and the p55/60 receptors over time. The release of membrane bound TNF-α and possibly TNF-R p75/80 and TNF-R p55/60, but not IL-8, is mediated by an enzyme called TNF-α converting enzyme or TACE.
THP-1 cells (from ATCC) are a human monocytic cell line which were obtained from the peripheral blood of a person with acute monocytic leukemia. They can be grown in culture and differentiated into macrophage like cells by stimulation with mitogens.
Each vial of cells are cultured for about two weeks prior to being used for an assay and then are used for only 4 to 6 weeks to screen compounds.
Cell exposure to DMSO was limited to 0.1% final concentration. […] Compounds can be evaluated for their effect on basal (non-stimulated) shedding of the receptors by replacing the LPS with […] of THP-1 media.
Plates are placed into an incubator set at 5% CO2 and at 37° C. After 4 hours of incubation, […] of tissue culture supernatant (TCS) is removed for use in an TNF-α ELISA. Following 24 hours of incubation, […] of TCS is removed and used for analysis in TNF-R p75/80, TNF-R p55160 and IL-8 ELISAs.
In addition, at the 24 hours timepoint, and the cells for each treatment group are collected by resuspension in 500 μl/well of THP-1 media and transferred into a FACS tube. […] The samples are run on a Becton Dickinson FaxCaliber FLOW cytometry machine and the amount of dye taken up by each cell is measured in the high red wavelength (FL3). Only cells with compromised membranes (dead or dying) can take up PI. The percent of live cells is calculated by the number of cells not stained with PI, divided by the total number of cells in the sample. The viability values calculated for the drug treated groups were compared to the viability value calculated for the vehicle treated mitogen stimulated group (“vehicle positive control”) to determine the “percent change from control”. This “percent change from control” value is an indicator of drug toxicity.
The quantity of soluble TNF-α, TNF-R p75/80 and TNF-R p55160 and IL-8 in the TCS of the THP-1 cell cultures are obtained with commercially available ELISAs from R&D Systems, by extrapolation from a standard curve generated with kit standards. The number of cells that either take up or exclude PI are measured by the FLOW cytometry machine and visualized by histograms using commercially available Cytologic software for each treatment group including all controls.
Biological variability in the magnitude of the response of THP-1 cell cultures requires that experiments be compared on the basis of percent change from “vehicle positive control” for each drug concentration. Percent change in each soluble protein evaluated from the “vehicle positive control” was calculated for each compound concentration with the following formula: [formula]
For the soluble protein (TNF-α, p75/80, p55/60, IL-8) studies under stimulated conditions, the mean pg/ml of duplicate wells were determined and the results expressed as percent change from “vehicle positive control”. For the soluble protein (p75/80 and p55/60 receptors) studies under non-stimulated conditions, the mean pg/ml of duplicate wells were determined and the results expressed as percent change from “vehicle positive control” utilizing the following formula: [formula]
IC50 values for each compound are calculated by non-linear regression analysis using customized software utilizing the JUMP statistical package.
For the cell viability studies, the viabilities (PI exclusion) of pooled duplicate wells were determined and the results expressed as % change from “vehicle positive control”.

The target in the next assay is MMP-9 (Homo sapiens, UniProt P14780). Put plainly: MMP-9 inhibition (thiopeptide or fluorescent peptide substrate). The note with it: for IC50: read-out: MMP9 IC50; for MMP9 % inhibition: printed in the MMP9 IC50 column, concentration not given. In kind it is biochemical. The procedure:
(§1) These standard pharmacological test procedures are based on the cleavage of a thiopeptide substrates such as Ac-Pro-Leu-Gly(2-mercapto-4-methyl-pentanoyl)-Leu-Gly-OEt by the matrix metalloproteinases MMP-1, MMP-13 (collagenases) or MMP-9 (gelatinase), which results in the release of a substrate product that reacts colorimetrically with DTNB (5,5′-dithiobis(2-nitro-benzoic acid)). The enzyme activity is measured by the rate of the color increase. The thiopeptide substrate is made up fresh as a 20 mM stock in 100% DMSO and the DTNB is dissolved in 100% DMSO as a 100 mM stock and stored in the dark at room temperature. Both the substrate and DTNB are diluted together to 1 mM with substrate buffer (50 mM HEPES pH 7.5, 5 mM CaCl2) before use. The stock of enzyme is diluted with buffer (50 mM HEPES, pH 7.5, 5 mM CaCl2, 0.02% Brij) to the desired final concentration. The buffer, enzyme, vehicle or inhibitor, and DTNB/substrate are added in this order to a 96 well plate (total reaction volume of 200 μl) and the increase in color is monitored spectrophotometrically for 5 minutes at 405 nm on a plate reader and the increase in color over time is plotted as a linear line.
(§2) Alternatively, a fluorescent peptide substrate is used. In this test procedure, the peptide substrate contains a fluorescent group and a quenching group. Upon cleavage of the substrate by an MMP, the fluorescence that is generated is quantitated on the fluorescence plate reader. The assay is run in HCBC assay buffer (50 mM HEPES, pH 7.0, 5 mM Ca^+2, 0.02% Brij, 0.5% Cysteine), with human recombinant MMP-1, MMP-9, or MMP-13. The substrate is dissolved in methanol and stored frozen in 1 mM aliquots. For the assay, substrate and enzymes are diluted in HCBC buffer to the desired concentrations. Compounds are added to the 96 well plate containing enzyme and the reaction is started by the addition of substrate. The reaction is read (excitation 340 nm, emission 444 nm) for 10 min. and the increase in fluorescence over time is plotted as a linear line.
(§3) For either the thiopeptide or fluorescent peptide test procedures, the slope of the line is calculated and represents the reaction rate. The linearity of the reaction rate is confirmed (r^2>0.85). The mean (x±sem) of the control rate is calculated and compared for statistical significance (p<0.05) with drug-treated rates using Dunnett's multiple comparison test. Dose-response relationships can be generated using multiple doses of drug and IC50 values with 95% CI are estimated using linear regression.

The target in a further assay is MMP-13 (Homo sapiens, UniProt P45452). Put plainly: MMP-13 inhibition (thiopeptide or fluorescent peptide substrate). In kind it is biochemical. The note with it: for IC50: read-out: MMP13 IC50; for MMP13 % inhibition: MMP13 IC50, concentration not given. The procedure: The enzyme activity is measured by the rate of the color increase. The thiopeptide substrate is made up fresh as a 20 mM stock in 100% DMSO and the DTNB is dissolved in 100% DMSO as a 100 mM stock and stored in the dark at room temperature. Both the substrate and DTNB are diluted together to 1 mM with substrate buffer (50 mM HEPES pH 7.5, 5 mM CaCl2) before use. The stock of enzyme is diluted with buffer (50 mM HEPES, pH 7.5, 5 mM CaCl2, 0.02% Brij) to the desired final concentration.
as §2, with “substrate.” for “substrate. The reaction is read (excitation 340 nm, emission 444 nm) for 10 min. and the increase in fluorescence over time is plotted as a linear line.”
For either the thiopeptide or fluorescent peptide test procedures, the slope of the line is calculated and represents the reaction rate. […] The mean (x±sem) of the control rate is calculated and compared for statistical significance (p<0.05) with drug-treated rates using Dunnett's multiple comparison test.

For the next assay, the target named is T1, MMP-1 (Homo sapiens, UniProt P03956).
T1 sequence (P03956 100-469): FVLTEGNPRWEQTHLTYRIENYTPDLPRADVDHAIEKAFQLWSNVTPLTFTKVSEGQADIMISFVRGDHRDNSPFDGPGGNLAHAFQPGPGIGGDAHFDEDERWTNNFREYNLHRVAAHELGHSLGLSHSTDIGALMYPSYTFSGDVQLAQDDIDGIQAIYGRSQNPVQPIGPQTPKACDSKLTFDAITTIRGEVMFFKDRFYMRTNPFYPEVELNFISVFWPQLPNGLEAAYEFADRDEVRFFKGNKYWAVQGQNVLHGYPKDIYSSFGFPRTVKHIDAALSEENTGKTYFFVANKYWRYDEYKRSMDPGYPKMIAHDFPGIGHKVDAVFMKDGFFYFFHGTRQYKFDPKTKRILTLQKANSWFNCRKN
Briefly: MMP-1 inhibition (thiopeptide or fluorescent peptide substrate). In kind it is biochemical. Conditions: for MMP1 % inhibition: printed in the MMP1 IC50 column, concentration not given; for IC50: read-out: MMP1 IC50. The procedure: as §1, §2, §3

Broadly, the IC50 is the midpoint of a concentration-inhibition curve. One may read the inhibition as the share of the control response that was lost under treatment. A high value points to a response far below the control.

The structures appear in SMILES notation. Counter-ions that a name gives are not always drawn.

Chain of MMP-9 (P14780 94-707): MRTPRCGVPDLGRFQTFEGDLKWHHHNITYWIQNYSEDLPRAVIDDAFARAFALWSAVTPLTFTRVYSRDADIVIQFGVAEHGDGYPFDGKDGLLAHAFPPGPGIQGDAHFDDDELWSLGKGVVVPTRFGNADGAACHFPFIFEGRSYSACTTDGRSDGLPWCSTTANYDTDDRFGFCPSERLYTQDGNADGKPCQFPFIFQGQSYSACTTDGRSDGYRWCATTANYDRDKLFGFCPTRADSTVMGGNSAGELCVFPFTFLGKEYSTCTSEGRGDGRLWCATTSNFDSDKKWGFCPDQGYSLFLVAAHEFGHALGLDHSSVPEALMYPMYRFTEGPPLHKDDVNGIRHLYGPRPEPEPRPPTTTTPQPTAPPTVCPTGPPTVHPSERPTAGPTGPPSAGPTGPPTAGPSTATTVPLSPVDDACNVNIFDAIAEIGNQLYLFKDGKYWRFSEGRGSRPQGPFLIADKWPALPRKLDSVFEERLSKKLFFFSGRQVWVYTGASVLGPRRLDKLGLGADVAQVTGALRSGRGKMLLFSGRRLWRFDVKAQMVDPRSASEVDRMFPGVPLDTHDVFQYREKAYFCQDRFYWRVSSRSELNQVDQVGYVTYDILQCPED
Chain of TNF-α converting enzyme (TACE) (P78536 215-824): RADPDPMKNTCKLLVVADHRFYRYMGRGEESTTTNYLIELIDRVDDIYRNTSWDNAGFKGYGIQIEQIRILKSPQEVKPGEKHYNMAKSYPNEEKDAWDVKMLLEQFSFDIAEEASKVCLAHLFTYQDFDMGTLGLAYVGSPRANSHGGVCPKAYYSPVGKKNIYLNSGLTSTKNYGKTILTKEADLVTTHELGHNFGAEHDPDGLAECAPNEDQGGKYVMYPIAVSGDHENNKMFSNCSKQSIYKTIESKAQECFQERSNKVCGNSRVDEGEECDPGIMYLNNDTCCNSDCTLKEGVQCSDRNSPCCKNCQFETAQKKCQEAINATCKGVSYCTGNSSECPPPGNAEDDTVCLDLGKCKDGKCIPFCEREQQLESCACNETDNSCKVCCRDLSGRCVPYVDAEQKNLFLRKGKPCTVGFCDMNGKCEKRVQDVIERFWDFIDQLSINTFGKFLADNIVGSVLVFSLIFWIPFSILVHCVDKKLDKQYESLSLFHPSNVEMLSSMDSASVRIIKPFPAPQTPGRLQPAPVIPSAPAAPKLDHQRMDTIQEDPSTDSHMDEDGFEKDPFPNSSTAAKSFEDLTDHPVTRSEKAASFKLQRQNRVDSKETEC

Regarding `O=C(NO)C1(S(=O)(=O)c2ccc(OCC#CCN3CCOCC3)cc2)CCN(Cc2ccc(Br)cc2)CC1` [Example 13, 1-(4-Bromo-benzyl)-4-[4-(4-morpholin-4-yl-but-2-ynyloxy)-benzenesulfonyl]-piperdine-4-carboxylic acid hydroxyamide], the IC50 in assay [1] was determined as 882 nM; at MMP-9, 2000 nM; on MMP-13 it was 800 nM. The molecule further returned an inhibition at 3 µM with THP-1 cells of 69%.
In turn, `CC#CCOc1ccc(SC2(C(=O)NO)CCN(C(=O)OC(C)(C)C)CC2)cc1` [Example 14, 4-(4-But-2-ynyloxy-phenylsulfanyl)-4-hydroxycarbamoyl-piperidine-1-carboxylic acid tert-butyl ester] yielded an inhibition at 1 µM in assay [1] of 67%. At MMP-1, this molecule gave an MMP1 % inhibition of 26%. In addition, the MMP9 % inhibition at MMP-9 was 21%. At MMP-13, this molecule registered an MMP13 % inhibition of 32%.
In the same order, the values of `CC#CCOc1ccc(SC2(C(=O)NO)CCNCC2)cc1` [Example 15, 4-(4-But-2-ynyloxy-phenylsulfanyl)-piperidine-4-carboxylic acid hydroxyamide] are 38%, 24%, 25% and 24%.
In the case of `CC#CCOc1ccc(SCC2(C(=O)NO)CCOCC2)cc1` [Example 17, 4-(4-But-2-ynyloxy-phenylsulfanylmethyl)-tetrahydro-pyran-4-carboxylic acid hydroxyamide], the values for the IC50 (in assay [1]; on MMP-9; on MMP-13) were 139 nM, 2300 nM and 946 nM, respectively. Also, 3 µM produced 0% inhibition in the assay on THP-1 cells.
In the same order, the values of `CC#CCOc1ccc(S(=O)(=O)CC2(C(=O)NO)CCOCC2)cc1` [Example 18, 4-(4-But-2-ynyloxy-benzenesulfonylmethyl)-tetrahydro-pyran-4-carboxylic acid hydroxyamide] are 11.4 nM, 1280 nM, 98 nM and 45%.
On to `CC#CCOc1ccc([S+]([O-])CC2(C(=O)NO)CCOCC2)cc1` (stereo not shown) [Example 19, 4-(4-But-2-ynyloxy-benzenesulfinylmethyl)-tetrahydro-pyran-4-carboxylic acid hydroxyamide], for which the IC50 turned out to be 74 nM in assay [1] and 1320 nM on MMP-13. The molecule further came in with an inhibition at 3 µM in the assay with THP-1 cells of 4%.
`CC#CCOc1ccc(S(=O)(=O)CC2(C(=O)NO)CCN(CC#CC)CC2)cc1` [Example 37, 1-(2-Butynyl)-4-({[4-(2-butynyloxy)phenyl]sulfonyl}methyl)-N-hydroxy-4-piperidinecarboxamide hydrochloride]: the IC50 in assay [1] was 18 nM; on MMP-1 it was 8600 nM; at MMP-9, 8580 nM; on MMP-13, 1020 nM.
In the same order, the values of `CC#CCOc1ccc(S(=O)(=O)CC2(C(=O)NO)CCN(C(=O)OC)CC2)cc1` [Example 39, Methyl 4-({[4-(2-butynyloxy)phenyl]sulfonyl}methyl)-4-[(hydroxyamino)-carbonyl]-1-piperidinecarboxylate] are 11 nM, 3770 nM, 4280 nM and 809 nM.

The record behind these values is US6753337B2, “Alkynyl containing hydroxamic acid compounds as matrix metalloproteinase/tace inhibitors” (Wyeth Holdings Corporation, priority 1999, dated 2004).
